This passage reports logP results from patent publication US20100081679A1, “DIAMINOPYRIMIDINES AS FUNGICIDES” (Bayer CropScience AG, priority 2007, published 2010).

Molecules are shown by their SMILES. Marks after values point to notes of the source that are not given here.

A short description of one data set: logP determination via retention times, calibrated with unbranched alkan-2-ones. The following applies: HPLC on reversed-phase C 18, EEC Directive 79/831 Annex V.A8; method *: 40° C., 0.1% aqueous formic acid and acetonitrile, linear gradient 10% to 95% acetonitrile. Format: physicochemical.
For `N#Cc1ccc(Nc2ncc(Br)c(NCC3CC3)n2)cc1` [compound 475], the logP is recorded as 2.7*. `CC(=O)c1cc(Nc2ncc(Br)c(NCC3CC3)n2)ccc1Cl` [compound 487]: the logP was 2.67*. On the same count and under the same terms, the same measure for `CCN(C(C)=O)c1ccc(Nc2ncc(Cl)c(NCC3CC3)n2)cc1` [compound 506]: 1.73*; for `Clc1ccc(Nc2ncc(Br)c(NCC3CC3)n2)cc1` [compound 474]: 2.67*. Take `CC(C)(CCl)C(=O)Nc1ccc(Nc2ncc(Cl)c(NCC3CC3)n2)cc1` [compound 556]: the logP was 2.02*. On to `CC(C)C(=O)Nc1ccc(Nc2ncc(Cl)c(NCC3CC3)n2)cc1` [compound 526], for which the logP is 1.73*. Still for that read-out and setting: to `O=C(c1ccc(Nc2ncc(Br)c(NCC3CC3)n2)cc1)N1CCOCC1` [compound 484] belongs 1.64*; to `COc1cc(Nc2ncc(Br)c(NC3CC3)n2)ccc1Cl` [compound 532], 2.70*. Same read-out and setting: the same measure for `O=C(N(c1ccc(Nc2ncc(Br)c(NCC3CC3)n2)cc1)C1CC1)C(F)(F)F` [compound 465]: 2.74*; for `Brc1cnc(Nc2ccc(-n3ccnc3)cc2)nc1NC1CC1` [compound 501]: 0.93*; for `CCOC(=O)Cc1ccc(Nc2ncc(Cl)c(NCC3CC3)n2)cc1` [compound 539]: 2.09*. On the same count and under the same terms, to `CCOC(=O)c1cccc(Nc2ncc(Br)c(NCC3CC3)n2)c1` [compound 477] belongs 2.51*.

The data set is the same for the next values; noted with them: HPLC on reversed-phase C 18, method **: 43° C.; 0.1% aqueous phosphoric acid and acetonitrile; linear gradient 10% to 95% acetonitrile.
With `CSc1cccc(Nc2ncc(Cl)c(N(C)C3CC3)n2)c1` [compound 738], the logP is recorded as 3.59**.

The data set is the same for the next values; noted with them: HPLC on reversed-phase C18, method *: 40° C., 0.1% aqueous formic acid and acetonitrile, linear gradient 10% to 95% acetonitrile.
For `CS(=O)(=O)c1ccc(Nc2ncc(Cl)c(NCC3CC3)n2)cc1` [compound 670], the logP is 1.97*. For `CCC(=O)Nc1cc(Nc2ncc(Br)c(NC3CC3)n2)ccc1O` [compound 767], the logP is 1.85*. In the case of `Cc1cccc(C)c1Nc1ncc(Cl)c(NCC2CC2)n1` [compound 682], the logP was 1.87*. The same measure, in the same setting: to `CS(=O)(=O)Nc1ccc(Nc2ncc(Cl)c(NCC3CC3)n2)cc1` [compound 697] belongs 1.51*; to `CC(C)c1cccc(Nc2ncc(C(F)(F)F)c(NC3CC3)n2)c1` [compound 973], 4.14*. Consider `CC(=O)N(C)c1ccc(Nc2ncc(Cl)c(NCC3CC3)n2)cc1` [compound 671], for which the logP is recorded as 1.58*. On the same count and under the same terms, the same measure for `Clc1cnc(Nc2cccc(-c3ccco3)c2)nc1NC1CC1` [compound 714]: 2.54*; for `CSc1cccc(Nc2ncc(Cl)c(NCC3CC3)n2)c1` [compound 119]: 2.27*.

Take `Cc1cc(O)ccc1Nc1ncc(Br)c(NC2CC2)n1` [compound 112]: the logP is given as 1.21*.

In the case of `CC(C)(C)NC(=O)c1ccc(Nc2ncc(Cl)c(NCC3CC3)n2)cc1` [compound 673], the logP is 2.21*. As for `CC(C)(C)OC(=O)NCc1ccc(Nc2ncc(Cl)c(NCC3CC3)n2)cc1` [compound 162], the logP is 2.21*.

`Brc1cnc(Nc2ccc3c(c2)OCO3)nc1NC1CC1` [compound 752]: the logP was 1.66*. Turning to `CN(C)S(=O)(=O)Oc1ccc(Nc2ncc(Cl)c(NC3CC3)n2)cc1` [Example 102], the logP is given as 2.08*.

As for `O=C(Nc1ccccc1)Nc1ccc(Nc2ncc(Cl)c(NC3CC3)n2)cc1` [compound 739], the logP is given as 1.75*. The same measure, in the same setting: to `OC(c1cccc(Nc2ncc(Cl)c(NC3CC3)n2)c1)C(F)(F)F` (racemic) [compound 961] belongs 1.79*.

The data set is the same for the next values; noted with them: HPLC on reversed-phase C18, method *: 40° C.; mobile phase 0.1% aqueous formic acid and acetonitrile; linear gradient 10% to 95% acetonitrile.
`FC(F)(F)Oc1ccc(Nc2ncc(Cl)c(NC3CC3)n2)cc1Cl` [compound 296]: the logP is 3.9*. As for `CCC(=O)c1cccc(Nc2ncc(Br)c(NC3CC3)n2)c1` [compound 305], the logP is recorded as 2.32*. On the same count and under the same terms, the same measure for `COc1cccc(Nc2ncc(Br)c(NC3CC3)n2)c1` [compound 343]: 1.9*; for `FC(F)(F)Oc1cccc(Nc2ncc(Br)c(NC3CC3)n2)c1` [compound 301]: 3.68*; for `FC(F)(F)Oc1cccc(Nc2ncc(Cl)c(NC3CC3)n2)c1` [compound 300]: 3.18*. For the molecule `CC(=O)Nc1ccc(Nc2ncc(Br)c(NC3CC3)n2)cc1` [compound 348], the logP is 1.31*.

Still in this data set, the particulars now being: HPLC on reversed-phase C18 column (EEC Directive 79/831 Annex V.A8); method *: 40° C.; 0.1% aqueous formic acid and acetonitrile; linear gradient 10% to 95% acetonitrile.
`Clc1cnc(Nc2ccc(NC3CC3)nc2)nc1NC1CC1` [compound 186]: the logP is given as 0.92*.

Turning to `COCc1cccc(Nc2ncc(Br)c(NC3CC3)n2)c1` [compound 269], the logP is given as 1.8*. Same read-out and setting: the same measure for `CC(C)Sc1cccc(Nc2ncc(Cl)c(NC3CC3)n2)c1` [compound 264]: 3.18*.

The same data set, now with this note: HPLC reversed-phase C 18, EEC Directive 79/831 Annex V.A8; method **: 43° C., 0.1% aqueous phosphoric acid and acetonitrile, linear gradient 10% to 95% acetonitrile.
As for `O=C1OCCN1c1cccc(Nc2ncc(C(F)(F)F)c(NC3CC3)n2)c1` [compound 834], the logP was 2.18**. On the same count and under the same terms, the same measure for `CN1CCN(c2ccc(Nc3ncc(Cl)c(NC4CC4)n3)cc2C(F)(F)F)CC1` [compound 846]: 1.38**.

The same data set, now with this note: HPLC reversed-phase C 18, EEC Directive 79/831 Annex V.A8; method *: 40° C., 0.1% aqueous formic acid and acetonitrile, linear gradient 10% to 95% acetonitrile.
On to `O=C1OCCN1c1cccc(Nc2ncc(C(F)(F)F)c(NC3CC3)n2)c1` [compound 834], for which the logP is 2.18*;. On the same count and under the same terms, to `Cc1ccc(Nc2ncc(Cl)c(NC3CC3)n2)cc1CC#N` [compound 819] belongs 1.79*; to `CCSC(C)c1cccc(Nc2ncc(Br)c(NC3CC3)n2)c1` (stereo not shown) [compound 797], 3.09*.

Turning to `Clc1cnc(Nc2ccccc2)nc1NCC1CC1(Cl)Cl` (stereo not shown) [compound 800], the logP is reported as 2.46*. Same read-out and setting: the same measure for `O=C1OCCN1c1cccc(Nc2ncc(Cl)c(NCC3CC3)n2)c1` [compound 861]: 1.63*.

Staying with this data set, now noted: method **: HPLC reversed-phase C 18, 43° C., 0.1% aqueous phosphoric acid and acetonitrile, linear gradient 10% to 95% acetonitrile.
As for `Fc1cnc(Nc2ccccc2)nc1NC1CC1` [compound 42], the logP is on record as 1.45**.

As for `CNS(=O)(=O)c1ccc(Nc2ncc(Cl)c(NCC3CC3)n2)cc1` [compound 20], the logP was 1.87**. Same read-out and setting: to `CC(=O)c1cccc(Nc2ncc(Cl)c(NCC3CC3)n2)c1` [compound 13] belongs 1.87**.

The same data set, now with this note: method **: HPLC reversed-phase C 18, temperature 43° C.; mobile phase 0.1% aqueous phosphoric acid and acetonitrile; linear gradient 10% to 95% acetonitrile.
For the molecule `CC(=O)Nc1cccc(Nc2ncc(C(F)(F)F)c(NC3CC3)n2)c1` [compound 649], the logP was 1.77**.

The same data set, now with this note: method **: HPLC, reversed-phase C 18, 43° C., mobile phase 0.1% aqueous phosphoric acid and acetonitrile, linear gradient from 10% to 95% acetonitrile.
With `COc1ccc(CN(c2nc(Nc3cccc(SC)c3)ncc2Cl)C2CC2)cc1` [compound 1026], the logP is 4.78**. Still for that read-out and setting: to `COCc1cccc(Nc2ncc(Cl)c(N(Cc3ccc(OC)cc3)C3CC3)n2)c1` [compound 1044] belongs 4.07**; to `CC1(C)CC1Nc1nc(Nc2ccccc2)ncc1Cl` (stereo not shown) [compound 1027], 2.37**.

Staying with this data set, now noted: method *: HPLC reversed-phase C18, 40° C., 0.1% aqueous formic acid and acetonitrile, linear gradient 10% to 95% acetonitrile.
`CCSc1cccc(Nc2ncc(Cl)c(NC3CC3)n2)c1` [compound 436]: the logP is reported as 2.72*. As for `FC(F)Sc1ccc(Nc2ncc(Cl)c(NC3CC3)n2)cc1` [compound 94], the logP is 2.77*. On to `CSc1ccc(Nc2ncc(Cl)c(NC3CC3)n2)cc1Cl` [compound 377], for which the logP is reported as 2.84*. Still for that read-out and setting: to `O=C1OCCN1c1ccc(Nc2ncc(Cl)c(NC3CC3)n2)cc1` [compound 83] belongs 1.39*; to `CCCCSc1cccc(Nc2ncc(Cl)c(NC3CC3)n2)c1.Cc1ccc(S(=O)(=O)O)cc1` [compound 443], 3.79*; to `N#Cc1cnc(Nc2ccccc2)nc1NC1CC1` [compound 40], 2.44*.

The data set is the same for the next values; noted with them: method *: HPLC reversed-phase C 18, temperature 40° C.; mobile phase 0.1% aqueous formic acid and acetonitrile; linear gradient 10% to 95% acetonitrile.
Take `CC(=O)Nc1cccc(Nc2ncc(C(F)(F)F)c(NC3CC3)n2)c1` [compound 649]: the logP was 1.78*;. With `COC(=O)Nc1cccc(Nc2ncc(F)c(NC3CC3)n2)c1` [compound 598], the logP is reported as 1.37*. On the same count and under the same terms, the same measure for `CN1CCN(c2cccc(Nc3ncc(Br)c(NC4CC4)n3)c2)C1=O` [compound 570]: 1.58*. Still for that read-out and setting: to `O=C1CCCN1c1cccc(Nc2ncc(I)c(NC3CC3)n2)c1` [compound 637] belongs 1.6*; to `CC(C)(C)C(=O)Cc1ccc(Nc2ncc(C(F)(F)F)c(NC3CC3)n2)cc1` [compound 655], 3.33*; to `CC(C)(C)C(=O)Cc1ccc(Nc2ncc(F)c(NC3CC3)n2)cc1` [compound 589], 1.92*. On the same count and under the same terms, to `Fc1cccc(Nc2ncc(Cl)c(NC3CC3)n2)c1` [compound 620] belongs 3.15*; to `CNC(=O)c1cccc(Nc2ncc(F)c(NC3CC3)n2)c1` [compound 585], 1.05*; to `CN(C)S(=O)(=O)c1cccc(Nc2ncc(C#N)c(NC3CC3)n2)c1` [compound 617], 2.36*.

Still in this data set, the particulars now being: method *: HPLC, reversed-phase C 18, 40° C., mobile phase 0.1% aqueous formic acid and acetonitrile, linear gradient from 10% to 95% acetonitrile.
As to `CCC(CC)c1ccc(Nc2ncc(C(F)(F)F)c(NC3CC3)n2)cc1` [compound 1032], the logP is 4.92*. Turning to `COCc1cc(Nc2ncc(Cl)c(NC3CC3)n2)ccc1OC` [compound 1050], the logP is listed as 1.55*. Still for that read-out and setting: to `Cc1cccc(Nc2ncc(Cl)c(NCC3CC3)n2)c1` [compound 1051] belongs 2.09*; to `Brc1cnc(Nc2ccccc2)nc1NC1CC1` [compound 1069], 2.65*. Take `CCCSc1cccc(Nc2ncc(Cl)c(N(C)C3CC3)n2)c1` [compound 983]: the logP is on record as 4.88*. The same measure, in the same setting: the same measure for `CC1(C)CC1Nc1nc(Nc2ccccc2)ncc1Cl` (stereo not shown) [compound 1027]: 2.37*;. Still for that read-out and setting: to `CN1CCN(C(=O)c2cccc(Nc3ncc(Cl)c(NC4CC4)n3)c2)CC1` [compound 1059] belongs 0.59*.
